Results: patent US20130184318A1, “[…] […]” (THE REGENTS OF THE UNIVERSITY OF CALIFORNIA, priority 2010, published 2013)

Tests used:
Assay type in all cases: cell-based, human
HTM cells [1] = assay: AFM measurement of Young's modulus (compliance) of HTM cells before and after Lat-B exposure; details: for HTM Cell Modulus on Substrates, Glass: glass (GPa range), pre-dose 2.7 ± 0.7; for HTM Cell Modulus on Substrates, Homeomimetic: homeomimetic gel E = 4.0 ± 1.5 kPa, pre-dose 1.6 ± 0.2; for HTM Cell Modulus on Substrates, Pathomimetic: pathomimetic gel E = 92 ± 10 kPa, pre-dose 1.8 ± 0.5
Experimental: (§1) Primary HTM cells were obtained from corneal buttons from donors with no ocular diseases and that were not suitable for transplant. […] Cells were plated onto glass surfaces at 100,000 cells per surface. A similar number of cells were plated onto the biomimetic PA hydrogels. The cells were allowed to attach to the surfaces for 12 hours prior to the start of the experiment. Fluorescent images of the actin cytoskeleton were obtained from fixed cells stained with phalloidin-AlexaFluor 568 (Invitrogen, Carlsbad, Calif.). Fluorescent images of the cell membrane were obtained from live cells stained with wheat germ agglutinin-AlexaFluor 488 (Invitrogen).
The PA gels were then adhered to UV-cleaned, glass-bottom petri dishes (World Precision Instruments, Sarasota, Fla.), incubated in HTM medium for 12 hours, and then coated with a mixture of fibronectin and collagen (FNC coating mix, Athena Environmental Sciences, Baltimore, Md.) for 10 minutes prior to cell seeding. HTM cells were added to these dishes in media and were allowed to incubate overnight to ensure proper cell adhesion to the FNC-coated PA gels. Immediately prior to AFM measurements, the HTM media was rinsed away with PBS. This was done because fetal bovine serum is known to inactivate Lat-B (Spector, et al., (1989) Cell Motil Cytoskeleton 13:127-144).
The contact mechanics of the PA substrates and the HTM cells were studied with two MFP-3D atomic force microscopes (Asylum Research, Santa Barbara, Calif.) interfaced with either an Olympus (FluoView 1000 laser scanning confocal microscope, Olympus America, Center Valley, Pa.) or Zeiss (Axio Observer A1, Carl Zeiss, Thornwood, N.Y.) inverted microscope. No differences in contact mechanics of the samples were observed between the two instruments. The AFM probes in the substrate studies were silicon nitride cantilevers (PNP-TR-50, k=60 pN/nm, NanoAndMore, Lady's Island, S.C.) with a square pyramid tip incorporated at the free end. For each experiment, the actual spring constant of the cantilever was determined by monitoring the amplitude of the lever's thermal vibration at resonance and applying the equipartition theorem (Hutter, et al., (1993) Review of Scientific Instruments 64:3342-3342). Probe indentation measurements were obtained over the central region of the cell where the nucleus was present.
Compliance of the HTM cells and PA gels was quantified by fitting the force, generated by the indenting probe, vs. the depth of indentation with equation 1 (Hertz, H. (1882) J. Reine Angew. Mathematik 92:156-171; Love, A. E. H. (1939) Quarterly Journal of Mathematics 10:161-175; Harding, et al., (1945) Proceedings of the cambridge philosophical society 41:16-26).
Where α is the half-angle opening of the square pyramid tip (35°), ν is Poisson's ratio, E is Young's modulus and δ is the penetration depth. By using Eq. 1, we have assumed that the HTM cells and PA gels were perfectly elastic, isotropic, and infinitely thick and that the square pyramid indenter was a rigid cone. A Poisson ratio of 0.5 (incompressible) for both the cell and polyacrylamide gels was assigned, since both samples were well hydrated. This allows a solution for Young's modulus of the sample.
Application of Eq. 1 is not straightforward, as both the cells and gels were not perfectly elastic or isotropic, they were viscoelastic and anisotropic, and they were also not infinitely thick. However, in the limit of small indentations both the cells and gels were well described by Eq. 1. The method proposed by Mahaffey et al., (Phys Rev Lett (2000) 85:880-883) was applied to quantitatively define the indentation depth over which these viscoelastic materials behave as elastic bodies. This is accomplished by plotting experimental values of E vs. δ during tip indentation and noting the penetration depth over which E remains constant. […]

HTM cells [2] = assay: Confocal/fluorescence imaging of HTM cell morphology on latrunculin exposure and recovery; details: for cell morphology: 0.2 μM latrunculin
Experimental: as §1
Latrunculin B influences cytoskeleton of cells by associating with actin. […] The micrographs were taken with a confocal AFM. The live HTM cells were labeled with fluorescent wheat germ agglutinin and the latrunculin was added. […] Measurements of compliance were taken prior to the introduction of drug, and at the 30 minute time point. The cells had moduli of 2.0 kPa prior to addition of latrunculin, and 0.07 kPa at 30 minutes. The concentration of drug used was not in the range of 1-100 μM used in other published studies. It should be noted, however, that the higher ranges (100 μM) were topically applied to primate eyes (20 μl) in one bolus while our studies had the drug present during the entire one hour time period. The effects of the latrunculin were profound.
The morphology of HTM cells adhered to glass and the glaucomatous (pathomimetic)polyacrylamide gel (PPA, 92.2±10.4 kPa) substrates were predominantly elongated with pronounced asymmetry. On the homeomimetic polyacrylamide gel (HPA, 4.0±1.5 kPa), the cells were predominantly adhered in a radially symmetric fashion and were considerably rounder in appearance (See, FIGS. 6 and 10). When exposed to Lat-B, HTM cells on glass and PPA substrates responded in a similar fashion to other cell types previously studied (Spector, et al., (1983) Science 219:493-495, Wakatsuki, et al., (2001) Journal of Cell Science 114:1025-1036, Coue, et al., (1987) Febs Letters 213:316-318; Cha, et al., (2004) J Cell Sci 117:3353-3365). Lat-B disrupted the dynamic process of actin filament maintenance and the actin polymerization process rapidly shifted towards net depolymerization. […] These strands resembled retraction fibers observed during mitosis (Sanger, et al., (1984) Cell Tissue Res 237:409-417). Similar cable-like filaments have also been reported by Evanko, et. al., (J Histochem Cytochem (2009) 57:1041-1060).

myocilin = assay: Western blot of myocilin protein in HTM 631 cells; details: HTM 631 cells on 400 nm pitch surfaces with dexamethasone
Experimental: Protein concentration is assessed using the Bradford protein assay. Samples of 10 μg are electrophoresed on a 10% polyacrylamide gel and the protein transferred to nitrocellulose membranes as previously described^141. Antibodies for the proteins being detected are commercially available or publicly described. A chemiluminescent detection method is used with peroxidase linked antibodies to mouse, chick or rabbit in conjunction with the LumiGLO chemiluminesent kit. The banding pattern obtained on the x-ray film is quantified using ImageQuant software with the actin band serving as a normalized reference for protein loading. Imaging can also be done using a CCD camera without the use of x-ray film.

Row | SMILES | modulus of the cells (HTM cells [1]; 0.2 μM latrunculin, measured after 30 minutes, 2.0 kPa before addition) | cell resistance to deformation compared to pre-exposure levels (HTM cells [1]; at 30 minutes of Lat-B exposure (0.2 μM)) | HTM Cell Modulus on Substrates, Glass (HTM cells [1]; 90 min recovery after 30 min 0.2 μM Lat-B and removal) | HTM Cell Modulus on Substrates, Glass (HTM cells [1]; 90 min recovery after 30 min 0.2 μM Lat-B and removal, listed as Lat-B) | HTM Cell Modulus on Substrates, Glass (HTM cells [1]; 270 min recovery after 30 min 0.2 μM Lat-B and removal) | HTM Cell Modulus on Substrates, Glass (HTM cells [1]; 270 min recovery after 30 min 0.2 μM Lat-B and removal, listed as Lat-B) | HTM Cell Modulus on Substrates, Homeomimetic (HTM cells [1]; 90 min recovery after Lat-B) | HTM Cell Modulus on Substrates, Homeomimetic (HTM cells [1]; 270 min recovery after Lat-B) | percentage difference in cell elastic modulus, PPA to HPA (HTM cells [1]; maximum, at 90 minutes of recovery from Lat-B) | HTM Cell Modulus on Substrates, Pathomimetic (HTM cells [1]; 90 min recovery after Lat-B) | HTM Cell Modulus on Substrates, Pathomimetic (HTM cells [1]; 270 min recovery after Lat-B) | cell morphology (HTM cells [2]; 30 minutes, listed as Latrunculin) | cell morphology (HTM cells [2]; 30 minutes, listed as latrunculin) | cell morphology (HTM cells [2]; one hour) | time to return to pre-exposure morphology after rinsing Lat-B (HTM cells [2]; glass and PPA substrates) | increase in myocilin protein expression (myocilin)
1 | C/C1=C/C(=O)O[C@@H]2C[C@@H](CC[C@H](C)/C=C\CC1)O[C@@](O)([C@@H]1CSC(=O)N1)C2 [Latrunculin B] | 0.07 kPa | substantially decreased | 11.0 ± 2.3 kPa | 11.0±2.3 kPa | 2.3 ± 0.2 kPa | 2.3±0.2 kPa | 2.3 ± 0.2 kPa | 1.7 ± 0.5 kPa | approximately 54% | 4.0 ± 1.8 kPa | 2.0 ± 0.4 kPa | rounding of the cells | starting to round up | completely rounded | 60-90 minutes | 
2 | C[C@@H]1C[C@H]2[C@@H]3CCC4=CC(=O)C=C[C@]4(C)[C@@]3(F)[C@@H](O)C[C@]2(C)[C@@]1(O)C(=O)CO [dexamethasone] |  |  |  |  |  |  |  |  |  |  |  |  |  |  |  | 19 fold
